Data from patent publication US20210322369A1, “COMPOSITION FOR IMPROVING INTESTINAL ENVIRONMENT AND METHOD FOR IMPROVING INTESTINAL FLORA” (SUNTORY HOLDINGS LIMITED, priority 2018, published 2021).

How the values were obtained:
[1] = test system: gut flora (Akkermansia bacteria, Firmicutes bacteria, Bacteroidetes bacteria); assay: Gut flora improving action in high fat diet mouse model, 16S rRNA gene analysis of feces after eight weeks of intake; format: in vivo, Mice (C57BL/6J); conditions: high fat diet mice; for abundance ratio of Firmicutes bacteria to Bacteroidetes bacteria: eight weeks, High fat diet group 7.4, Regular diet group 4.2; for abundance ratio of Firmicutes bacteria to Bacteroidetes bacteria / abundance proportion of Akkermansia bacteria in the gut flora: feces; for change in the abundance ratio of Firmicutes bacteria to Bacteroidetes bacteria, in words: oral intake for eight weeks; for change in the abundance ratio of Firmicutes bacteria to Bacteroidetes bacteria, in words / abundance proportion of Akkermansia bacteria in the gut flora: compared to High fat diet group; for abundance proportion of Akkermansia bacteria in the gut flora: oral intake once a day for eight weeks
Excerpt: The influence of xanthohumol and isoxanthohumol on the gut flora was examined by the following procedure using a high fat diet mouse model. […] The dosage is an intake (mg) of the test substance per kg body weight per day. In the table, “Regular diet” is control diet “[…]” (Research Diets), and “60 kcal % High-fat diet” is very high-fat diet “D12492” (Research Diets); “Catechins” is a preparation “Polyphenon […]” (product name, Mitsui Morin Co., Ltd.). Catechins were used as a positive control. Xanthohumol and isoxanthohumol were the standard samples (purity of 95% or higher) obtained in Preparation Example 1. [table] Mice (C57BL/6J, male, 7 weeks of age, CLEA Japan, Inc.) were purchased, and they were quarantined and acclimatized for one week. […] The selected animals were divided into groups (n=8 in each group) in the group structure shown in Table 1 by the stratified continuous randomization method based on body weight at the end of the acclimatization period. They were fed with free access to specific basic feed and water. The test substance was orally fed once a day for eight weeks. A dosing solution containing a mixture of the test substance and a solvent was used to administer the test substance. The solvent was a 0.5 wt % sodium carboxymethylcellulose (CMC) aqueous solution. The volume of the dosing solution to be administered to each mouse was 10 mL/kg. The amount of the test substance and the volume of the solution were calculated based on the latest body weight. 16S rRNA gene analysis was performed on feces (fresh feces) collected eight weeks after the start of intake of the test substance. 16S rRNA gene analysis was performed by the method described in Examples of JP 2018-8911 A. The abundance proportions (abundance ratio) of intestinal bacteria found in the feces were determined by the gene analysis as the abundance ratio of bacteria in the gut flora. FIG. 1 is a graph showing the abundance proportion (group average) of bacteria in the gut flora of each group. The abundance proportion shown in FIG. 1 is the ratio (occupancy) of each species of bacteria to the total bacterial count in the feces. Verrucomicrobia in FIG. 1 is a higher rank to which Akkermansia bacteria belong. All the Verrucomicrobia bacteria in this analysis were Akkermansia bacteria. The dosage (mg/kg) of isoxanthohumol (IXN) and xanthohumol (XN) in FIG. 1 is the intake (mg) of the test substance per kg body weight per day. […] The abundance ratio of Firmicutes bacteria to Bacteroidetes bacteria was as follows: 4.2 in Regular diet group; 7.4 in High fat diet group; 1.7 in Catechins group; 3.2 in Xanthohumol (60 mg/kg) group; 6.0 in Isoxanthohumol (60 mg/kg) group (Group No. 5); and 2.4 in Isoxanthohumol (180 mg/kg) group (Group No. 6).

[2] = test system: gut flora (Akkermansia bacteria); assay: Example 2: 16S rRNA gene analysis of cecal contents two weeks after the start of intake; format: in vivo; conditions: 60 mg/kg body weight per day, compared to High fat diet group
Description: 16S rRNA gene analysis was performed on feces (fresh feces) collected eight weeks after the start of intake of the test substance. 16S rRNA gene analysis was performed by the method described in Examples of JP 2018-8911 A. The abundance proportions (abundance ratio) of intestinal bacteria found in the feces were determined by the gene analysis as the abundance ratio of bacteria in the gut flora.
Another test was performed using isoxanthohumol as the test substance, with partial modification in the group structure and dosage design. In this test, the cecal contents were collected two weeks after the start of intake of the test substance, and 16S rRNA gene analysis was performed in the same manner as described above.

[3] = 100° C.; cited from earlier work

| Compound | abundance ratio of Firmicutes bacteria to Bacteroidetes bacteria ([1]; 60 mg/kg/day oral) | abundance ratio of Firmicutes bacteria to Bacteroidetes bacteria ([1]; 180 mg/kg/day oral) | change in the abundance ratio of Firmicutes bacteria to Bacteroidetes bacteria, in words [1] | abundance proportion of Akkermansia bacteria in the gut flora [1] | abundance ratio of Akkermansia bacteria in the gut flora [2] | stability at high temperature [3] |
| --- | --- | --- | --- | --- | --- | --- |
| COc1cc(O)c(CC=C(C)C)c2c1C(=O)CC(c1ccc(O)cc1)O2 (stereo not drawn) [Isoxanthohumol] | 6.0 | 2.4 | decrease | increase | increase | stable |
| COc1cc(O)c(CC=C(C)C)c(O)c1C(=O)/C=C/c1ccc(O)cc1 [Xanthohumol] | 3.2 |  | decrease | increase |  |  |
